According to US20240076626A1, “HYDROGEN PEROXIDE EVOLVED HOST CELL” (MedImmune Limited, priority 2020, published 2024):

Assays:
H2O2 evolved host cells [1] = assay: cells; conditions: Cricetulus griseus
Description: The H2O2 evolved host and CHO control host were passaged to 90 PDL and 7 PDL respectively in CD-CHO supplemented with 6 mM glutamine after which both hosts were re-challenged with 37 mM H2O2 and viabilities recorded (viability measured on days 1, 2, 4, 7, 10, 11 and 12)
Specifically, CHO-K1 cells adapted to grow in suspension culture (CHO Control) were revived in chemically-defined (CD) CHO medium (Life technologies, Paisley, UK) supplemented with 6 mM L-glutamine (Life technologies, Paisley, UK) and passaged three times at 0.2×10^6 cells/ml in a 30 ml culture volume. When cells reached 99% viability, they were incubated for 1 hour with 14 mM H2O2 (Sigma-Aldrich, UK) before centrifugation at 130 g for 5 minutes and resuspended in 30 ml fresh CD CHO supplemented with 6 mM L-glutamine. CHO cells were left to recover until cells reached 70% viability. This process was repeated an additional three times resulting in a total of four exposures to 14 mM H2O2, in which cells gradually recovered over a period of 10-20 days, with the medium being replenished periodically, until cells reached 70% viability. The cells were then subjected to one round of 18.5 mM H2O2 treatment following the method above until cells reached 90% viability. […]

H2O2 evolved host cells [2] = assay: ChemStress assay, survival with prooxidant chemical compounds (PrestoBlue); format: cell-based, Chinese hamster; conditions: 72 hours growth in the presence of the stressor
Description: To confirm the H2O2 evolved host cell's ability to resist oxidative stress, the cells were evaluated for survival in response to several prooxidant chemical compounds selected to mimic bioreactor stressors: […] These chemicals affect a diverse subset of intracellular redox pathways such as those involved in GSH biosynthesis and turnover (BSO and MS) (Lee et al. (1992) “Effects of buthionine sulfoximine treatment on cellular glutathione levels and cytotoxicities of cisplatin, carboplatin and radiation in human stomach and ovarian cancer cell lines”. Korean J Intern Med. 7(2):111-7; Dunning et al. (2013) “Glutathione and antioxidant enzymes serve complementary roles in protecting activated hepatic stellate cells against hydrogen peroxide-induced cell death”. Biochim Biophys Acta. 1832(12):2027-34), intracellular ROS generation (MSB) (Beck et al. (2011) “Ascorbate/menadione-induced oxidative stress kills cancer cells that express normal or mutated forms of the oncogenic protein Bcr-Abl. An in vitro and in vivo mechanistic study”. […] J Neurosci Res. 64(6):646-53). Chem stress assays were performed according to the manufacturer's instructions (ChemStress®, […], Ireland). In brief, CHO or H2O2 evolved host cells were seeded into […] ChemStress plates (ChemStress®, […], Ireland) at 18,000 cells/well in 90 μl proprietary medium supplemented with 6 mM L-glutamine. A control well was incubated with medium alone. Plates were incubated for 72-hours in a static incubator at 36.5° C., 6% CO2. Following this, 10 μl of neat PrestoBlue dye (Thermo Fisher Scientific, UK) was added to all wells before plates were mixed for 20 seconds and incubated for a further 30 minutes at 36.5° C., 6% CO2. Plates were analyzed using a PHERAstar plate reader (BMG LABTECH, Ortenberg, Germany) with preconfigured protocols (excitation 560 nm, emission 590 nm). Data was analyzed, using the […] software ([…], Ireland).

H2O2 evolved host B = assay: Survival of BisAb-expressing pools in the presence of MSB (Vi-Cell viability); format: cell-based, Chinese hamster; conditions: 6 μM MSB, up to 72 hours, cells expressing BisAb B, versus H2O treated control
Description: (§1) Expressing pools were compared for survival in the presence of the widely used prooxidant, menadione sodium bisulphite (MSB). Briefly, CHO Control or H2O2 evolved host cells expressing BisAbs A or BisAb B were seeded at 0.3×10^6 cells/ml into 30 ml of proprietary medium supplemented with 50 μM MSX. A total of 6 μM Menadione Sodium Bisulfite (MSB) (Sigma-Aldrich, UK) or water was added to test and control cultures, respectively. Cells were assessed for viability and viable cell density (VCD) using a Vi-Cell XR Cell Viability Analyser (Beckman Coulter, USA) at 24, 48 and 72 hours post addition of MSB or water.

H2O2 evolved host A = assay: as above; format: cell-based, Chinese hamster; conditions: 6 μM MSB, up to 72 hours, cells expressing BisAb A, versus H2O treated control
Description: as §1

SMILES | viability at 37000 µM (H2O2 evolved host cells [1]) [%] | viability of H2O2 evolved host cells compared to CHO control cells (H2O2 evolved host cells [2]) | viability (H2O2 evolved host B) | viability (H2O2 evolved host A)
OO [H2O2, hydrogen peroxide] | ~50 | – | – | –
CCCCS(=N)(=O)CCC(N)C(=O)O (stereo not shown) [BSO, Buthionine Sulfoximine] | – | significantly improved viabilities | – | –
O=C(O)CC(S)C(=O)O (stereo not shown) [MS, Mercaptosuccinic Acid] | – | significantly improved viabilities | – | –
CC1(S(=O)(=O)[O-])CC(=O)c2ccccc2C1=O.[Na+] (stereo not shown) [MSB, Menadione Sodium Bisulphite] | – | significantly improved viabilities | comparable with H2O treated controls | comparable with H2O treated controls
[Cl][Co][Cl] [CoCl, Cobalt chloride] | – | significantly improved viabilities | – | –
